Experimental data: article PMC4578769, “Development of a Fluorescence-based Trypanosoma cruzi CYP51 Inhibition Assay for Effective Compound Triaging in Drug Discovery Programmes for Chagas Disease” (PLoS Neglected Tropical Diseases, 2015)
pIC50: −log10 of the molar value. Read-outs that look alike come from different tables or passages of the source.

Key:
T. cruzi = settings: cited from earlier work; for re-emergence of parasitaemia once dosing has been completed: clinical trial, patients
[1] = target: T1, T. cruzi CYP51 (Tulahuen strain) (Trypanosoma cruzi, UniProt Q7Z1V1); assay: biochemical; assay type: biochemical; settings: for inhibition of T. cruzi CYP51 (in words): known CYP450 inhibitors
T1 construct: ompA leader (N); host or cells: E. coli JM109 (membrane fraction, bactosomes)
T1 sequence (Q7Z1V1 whole entry): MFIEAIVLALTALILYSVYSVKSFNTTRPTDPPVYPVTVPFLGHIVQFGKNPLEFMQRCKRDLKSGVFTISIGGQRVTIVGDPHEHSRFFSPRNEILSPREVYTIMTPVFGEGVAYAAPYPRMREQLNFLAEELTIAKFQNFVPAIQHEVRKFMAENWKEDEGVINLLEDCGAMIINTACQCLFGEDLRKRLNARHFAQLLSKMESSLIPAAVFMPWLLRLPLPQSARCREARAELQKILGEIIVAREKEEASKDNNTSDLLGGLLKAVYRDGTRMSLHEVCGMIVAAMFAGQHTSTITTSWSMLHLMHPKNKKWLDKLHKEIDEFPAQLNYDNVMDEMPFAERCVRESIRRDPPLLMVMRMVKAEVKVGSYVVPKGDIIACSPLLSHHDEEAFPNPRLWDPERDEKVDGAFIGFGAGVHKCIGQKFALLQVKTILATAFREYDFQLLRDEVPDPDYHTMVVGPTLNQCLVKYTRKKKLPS
Experimental: E. coli membrane fractions containing the T. cruzi CYP51 (Tulahuen strain) (Bactosomes) were provided by Cypex Ltd.
For each concentration of test compound the rate of fluorescence units per minute was calculated as a percentage of the average rate of the solvent only control wells.
The percentage of solvent control values was then plotted against the concentration range. Using the following 4 parameter fit equation, an IC50 value can be determined.
y=Range/1+(x/IC50)^s+Background
With kinetic parameters established, a microtitre-based assay to measure inhibition of recombinantly expressed T. cruzi CYP51 by test compounds was then implemented. […] Incubations containing 37 pmoles/mL of T. cruzi CYP51 in bactosomes, 100 μM BOMCC, 10, 3.3, 1.0, 0.33, 0.1, 0.033 or 0.01 μM test compound (2% v/v solvent) in 50 mM potassium phosphate buffer (pH 7.4), were pre-incubated at 37°C for 5 minutes. Upon addition of NADPH regenerating system (7.8 mg [[…]] glucose-6-phosphate, 1.7 mg [[…]] NADP, 6 units/mL glucose-6-phosphate dehydrogenase in 2% w/v sodium bicarbonate buffer) production of fluorescent metabolite CHC was measured (Exc 410 nm, Em 460 nm) at 1 minute intervals over a 10 minute period. Rates of metabolite production per minute were compared to uninhibited controls and plotted against test compound concentration to obtain an IC50.

C[C@@H](c1nc(-c2ccc(C#N)cc2)cs1)[C@](O)(Cn1cncn1)c1ccc(F)cc1F [ravuconazole]
re-emergence of parasitaemia once dosing has been completed (T. cruzi): re-emergence of parasitaemia in two thirds of patients

CC(=O)N1CCN(c2ccc(OCC3COC(Cn4ccnc4)(c4ccc(Cl)cc4Cl)O3)cc2)CC1 (centres unmarked) [Ketoconazole]
curative activity in humans with chronic Chagas disease (T. cruzi): not demonstrated significant curative activity

CCC(C)n1ncn(-c2ccc(N3CCN(c4ccc(OCC5COC(Cn6cncn6)(c6ccc(Cl)cc6Cl)O5)cc4)CC3)cc2)c1=O (centres unmarked) [Itraconazole]
curative activity in humans with chronic Chagas disease (T. cruzi): not demonstrated significant curative activity

Cc1nc2c([nH]1)c(=O)n(C)c(=O)n2Cc1ccco1 [Furafylline]
pIC50 [1]: < 5.10 | inhibition of T. cruzi CYP51 (in words) [1]: did not appear to inhibit

Clc1ccc(COC(Cn2ccnc2)c2ccc(Cl)cc2Cl)c(Cl)c1 (centres unmarked) [Miconazole]
pIC50 [1]: 7.24

Nc1ccc(S(=O)(=O)Nc2ccnn2-c2ccccc2)cc1 [Sulphaphenazole]
inhibition of T. cruzi CYP51 (in words) [1]: did not appear to inhibit | IC50 ([1]; read-out: IC50 (μM), n = 3, 37 pmoles/mL T. cruzi CYP51 in bactosomes, 100 μM BOMCC, pH 7.4, 37°C, enzyme concentration defines minimum IC50 of approximately 0.02 μM): > 8 µM

C=C[C@H]1C[N@@]2CC[C@H]1C[C@@H]2[C@@H](O)c1ccnc2ccc(OC)cc12 [Quinidine]
pIC50 [1]: < 5.10 | inhibition of T. cruzi CYP51 (in words) [1]: did not appear to inhibit

Cn1cc[nH]c1=S [Methimazole]
pIC50 [1]: < 5.10

Clc1ccccc1CN1CCc2sccc2C1 [Ticlopidine]
pIC50 [1]: < 5.10 | inhibition of T. cruzi CYP51 (in words) [1]: did not appear to inhibit

CC[C@@H]([C@H](C)O)n1ncn(-c2ccc(N3CCN(c4ccc(OC[C@@H]5CO[C@@](Cn6cncn6)(c6ccc(F)cc6F)C5)cc4)CC3)cc2)c1=O [Posaconazole]
re-emergence of parasitaemia once dosing has been completed (T. cruzi): re-emergence of parasitaemia in two thirds of patients
